Laboratory results from patent US7160862B2, “Integrin binding motif containing peptides and methods of treating skeletal diseases” (Acologix, Inc., priority 2000, dated 2007).
Where no end group is shown, it is not given here.

Columns and labels:
[1] = system: calvaria from 4-days-old mice; assay: Fetal mouse calvarial assay (mouse calvarial organ culture, histomorphometry of new bone area); assay type: cell-based; conditions: 7-day organ culture of mouse calvaria halves in BGj medium with 0.1% BSA
Experimental: FGF-1 was purchased from Peprotech Inc. (Rocky Hill, N.J.). RGD-1, 2, 3, 4, 5 and 6 (referred to here as D-00001, D-00002, D-00003, D-00004, D-00005 and D-00006) were provided by Dr. Nomizu (Hokkaido University, Japan).
Pregnant ICR mice were purchased from SLC Japan Co. Ltd. (Shizuoka, Japan).
Mouse calvarial organ culture was performed as described in Mundy G et al. Science 286: 1946–1949, 1999 and Traianedes K et al. Endocrinology 139: 3178–3184, 1998. The calvaria from 4-days-old mice were excised and cut in half along the sagittal suture. Each half of the calvaria was placed on a stainless steel grid in a 12-well tissue culture dish (Asahi Glass Techno Corp., Funabashi, Japan). Each well contained 1.5 ml of BGj medium (Sigma, St. Louis, Mo.) supplemented with 0.1% bovine serum albumin (Sigma) and each compound. FGF-1 was used as a positive control as described by Mundy et al. The medium was changed at day 1 and 4, and the assay was terminated at day 7.
Calvaria was fixed with 10% neutral-buffered formalin, decalcified with 4.13% EDTA and embedded in paraffin. […] sections were made and stained with hematoxylin and eosin. New bone area was measured using Image-Pro Plus (Media Cybernetics, Silver Spring, Md.).

[2] = system: calvariae of four week old mice; assay: In vivo bone formation study (mouse calvaria growth assay); conditions: for bone area of calvaria sections compared to vehicle treated group: s.c. adjacent to calvariae twice a day for five days, D-00006 20 μg/kg/day, FGF-1 12.5 μg/kg/day, excised 15 days after last administration
Experimental: FGF-1 was purchased from Peprotech Inc. (Rocky Hill, N.J.). RGD-6 (referred to here as D-00006) was synthesized by CS Bio (San Carlos, Calif.) under the instruction of the inventors.
Four week old mice were purchased from SLC Japan Co. Ltd. (Shizuoka, Japan) and randomized to three groups (n=5).
D-00006 (20 μg/kg/day), FGF-1 (12.5 μg/kg/day), or vehicle (saline) was subcutaneously injected into the soft tissues adjacent to the calvariae of the test animals. The daily amount of the samples were divided by two, respectively, and injected twice a day for five days. After 15 days of the last administration, the calvariae were excised and cut in half along the sagittal suture, and provided to the Histomorphometrical analysis.
Calvaria was fixed with 10% neutral-buffered formalin, decalcified with 4.13% EDTA and embedded in paraffin. 4mm-thickness sections were made and stained with hematoxylin and eosin. New bone area was measured using Image-Pro Plus (Media Cybernetics, Silver Spring, Md.).

[3] = system: ovariectomized female Sprague-Dawley rats; assay: Effect on renal phosphate excretion in ovariectomized rats (serum and urine chemistry); assay type: in vivo, rat; conditions: Ovx rats, D-00006 20 and 200 μg/kg/day
From the text: Forty 3-month old virgin female Sprague-Dawley rats (Harlan Sprague Dawley, Inc.) were acclimated for one week prior to beginning the experiments.
One day prior to the initiation of treatments, the animals were anesthetized with a ketamin/xylazine anesthetic mixture, and animals in groups 2–5 were ovariectomized.
Urine was collected in metabolic cages on Day 41. Blood and urine samples were collected for chemistry and bone turnover markers assays at the end of the 41-day treatment period. Prior to urine and blood collections, the animals were placed in metabolic cages and deprived of food for an overnight fast period of 18 hours. Urine samples were collected and the volumes recorded. The urine samples were then centrifuges at approximately 3000×g for 10 minutes in a refrigerated centrifuge. The samples were filtered to remove contaminating sediments.

Substance | ability to enhance bone growth (new bone area) [1] | bone area of calvaria sections compared to vehicle treated group [2] | efficacy on bone area relative to FGF-1 ([2]; D-00006 20 μg/kg/day vs FGF-1 12.5 μg/kg/day) | serum phosphorus ([3]; 41-day treatment) | total amount of phosphorus in the 18-hour urine collections ([3]; Day 41) | percentage of tubular reabsorption of phosphorus ([3]; derived urine parameter) | phosphate clearance ([3]; derived urine parameter)
ERGDNDISPFSGDGQ (ERGDNDISPFSGDGQ-NH2) [D-00004] | best results | – | – | – | – | – | –
FGF-1: fibroblast growth factor-1 purchased from Peprotech Inc., used as a positive control [reference compound] | – | significant expansion of bone area | – | – | – | – | –
TDLQERGDNDISPFSGDGQPFKD [D-00006] | best results | significant expansion of bone area | equivalent to that of FGF-1 | dose-dependent increase | significant decrease | higher | lower
